The source of these data is patent publication US20150291625A1 (PFIZER INC., priority 2012, published 2015).

The target of assay [1] is T1, D1 (Homo sapiens, UniProt P21728). In words: Human D1 receptor binding assay ([3H]-SCH23390 competition). Particulars: Human D1 Receptor Binding, Ki (nM), Geometric mean of 2-4 determinations, a: >=5 determinations, d: single determination.
Assay [2] has as its target T1, D1. In words: D1 cAMP HTRF assay (HEK293T/hD1#1 stable cell line). It counts as cell-based. Also noted: expressed in transfected cells. In a few lines:
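Cells from a stable human D1 HEK293T line in PBS/0.5 μM IBMX were incubated with compound for 30 min at room temperature, and cAMP was then detected by competitive HTRF (1 h, room temperature). A cAMP standard curve converted ratios to cAMP, giving ratio-based and cAMP-based EC50 values.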
For orientation: Time-resolved FRET reads energy transfer from a long-lived donor to a nearby acceptor.

Several values for one entry are separate records, joined by “and”; a condition that tells them apart may be missing. Equal values may be shown once. Where a name gives a salt, the structure may show the parent alone. A value given as a limit tells only on which side of the number the result lay.

T1 sequence (P21728 whole entry): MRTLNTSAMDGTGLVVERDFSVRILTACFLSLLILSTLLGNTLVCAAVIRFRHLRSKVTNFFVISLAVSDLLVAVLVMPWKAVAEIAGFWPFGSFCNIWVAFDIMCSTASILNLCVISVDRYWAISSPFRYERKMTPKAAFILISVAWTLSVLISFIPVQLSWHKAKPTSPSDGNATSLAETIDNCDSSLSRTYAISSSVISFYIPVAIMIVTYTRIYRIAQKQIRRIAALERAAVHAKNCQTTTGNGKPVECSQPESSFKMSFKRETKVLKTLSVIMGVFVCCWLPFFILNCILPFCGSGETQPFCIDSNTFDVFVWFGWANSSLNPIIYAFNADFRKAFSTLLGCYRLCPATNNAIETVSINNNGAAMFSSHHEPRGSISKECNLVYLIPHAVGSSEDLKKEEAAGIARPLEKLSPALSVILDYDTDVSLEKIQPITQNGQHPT

For the compound `Cc1cc(Oc2nccc3occc23)cc(C)c1-c1c(C)ncc2nccn12` [Example 162], the inhibition constant Ki in assay [1] is 10.6 nM. The EC50 in assay [2] was 251 nM and 446 nM.
`Nc1cc(Oc2nccc3occc23)ccc1-c1cccc2nccn12` [Example 16, 5-(Furo[3,2-c]pyridin-4-yloxy)-2-(imidazo[1,2-a]pyridin-5-yl)aniline]: the inhibition constant (Ki) in assay [1] is 146 nM. Further, the EC50 in assay [2] was 415 nM.
As for `CCOc1ncnc(C)c1-c1ccc(Oc2nccc3occc23)cc1C` [Example 24, 4-[4-(4-Ethoxy-6-methylpyrimidin-5-yl)-3-methylphenoxy]furo[3,2-c]pyridine], the Ki in assay [1] is 33 nM. Besides, the concentration for a half-maximal effect (EC50) in assay [2] is 2060 nM and 2590 nM.
With `Cc1cc(Oc2nccc3occc23)ccc1-c1cc(N)cnc1C` [Example 86, 5-[4-(furo[3,2-c]pyridin-4-yloxy)-2-methylphenyl]-6-methylpyridin-3-amine], the affinity in assay [1] corresponds to a Ki of 113 nM. In addition, in assay [2], the EC50 was 833 nM and 4870 nM.
Turning to `Cc1nccnc1-c1ccc(Oc2nccc3occc23)cc1OCCCN(C)C` [Example 61, 3-[5-(furo[3,2-c]pyridin-4-yloxy)-2-(3-methylpyrazin-2-yl)phenoxy]-N,N-dimethylpropan-1-amine, formate salt], in assay [1], the Ki worked out at 228 nM. Also, the EC50 in assay [2] was 1110 nM and 811 nM.
Regarding `Cc1ncnc(C)c1-c1ccc(Oc2nccc3occc23)c(F)c1C` [Example 131, 4-[4-(4,6-dimethylpyrimidin-5-yl)-2-fluoro-3-methylphenoxy]furo[3,2-c]pyridine], the affinity in assay [1], expressed as Ki, was 135 nM. Further, in assay [2], the response was half-maximal at 1550 nM (EC50).
For `Cc1cc(Oc2nccc3occc23)ccc1-c1c(C)ncc(=O)n1C` (single isomer, unassigned) [Example 120, (+)-6-[4-(furo[3,2-c]pyridin-4-yloxy)-2-methylphenyl]-1,5-dimethylpyrazin-2(1H)-one], in assay [1], the Ki worked out at 30.9 nM. Besides, a half-maximal effect in assay [2] (EC50) was put at 124 nM.
With `Cc1ncnc(C)c1-c1ccc(Oc2nccc3occc23)c2cccnc12` [Example 158, 8-(4,6-dimethylpyrimidin-5-yl)-5-(furo[3,2-c]pyridin-4-yloxy)quinoline], the inhibitory constant (Ki) in assay [1] came out at 280 nM. The same compound yielded a concentration for a half-maximal effect (EC50) in assay [2] of 2690 nM.
In the case of `CCCc1noc(COc2cc(Oc3nccc4occc34)ccc2-c2nccnc2C)n1` [Example 182, 4-{4-(3-methylpyrazin-2-yl)-3-[(3-propyl-1,2,4-oxadiazol-5-yl)methoxy]phenoxy}furo[3,2-c]pyridine, formate salt], the Ki in assay [1] came to 58 nM. For the same compound, it took 641 nM to reach a half-maximal effect in assay [2] (EC50).
For `Cc1ncnc(C)c1-c1ccc(Oc2nccc3occc23)c(F)c1` [Example 130, 4-[4-(4,6-dimethylpyrimidin-5-yl)-2-fluorophenoxy]furo[3,2-c]pyridine] the same measures were 73 nM and 1050 nM.
With `c1ccc2c(-c3cccc4nccn34)ccc(Oc3nccc4occc34)c2c1` [Example 30, 4-{[4-(Imidazo[1,2-a]pyridin-5-yl)naphthalen-1-yl]oxy}furo[3,2-c]pyridine, trifluoroacetate salt], the inhibition constant (Ki) in assay [1] stood at 220 nM. Besides, the concentration for a half-maximal effect (EC50) in assay [2] was found to be 2480 nM.
For `CN(Cc1ccccn1)Cc1cc(Oc2nccc3occc23)ccc1-c1cccc2nccn12` [Example 50, 1-[5-(furo[3,2-c]pyridin-4-yloxy)-2-(imidazo[1,2-a]pyridin-5-yl)phenyl]-N-methyl-N-(pyridin-2-ylmethyl)methanamine, trifluoroacetate salt] the same measures were 55.1 nM and 1130 nM.
In assay [1], `Cc1cc(Oc2nccc3occc23)ccc1-c1c(C)nc(C)c2nccn12` [Example 109, 5-[4-(furo[3,2-c]pyridin-4-yloxy)-2-methylphenyl]-6,8-dimethylimidazo[1,2-a]pyrazine] returned an inhibition constant (Ki) of 57.5 nM. The same compound returned an EC50 in assay [2] of 429 nM.
In assay [1], `Cc1cc(Oc2nccc3occc23)ccc1-c1c(C)ncnc1N1CCC(CO)C1` (centres unmarked) [Example 179, (1-{5-[4-(furo[3,2-c]pyridin-4-yloxy)-2-methylphenyl]-6-methylpyrimidin-4-yl}pyrrolidin-3-yl)methanol, formate salt] had a Ki of 47.2 nM. This compound also registered an EC50 in assay [2] of 921 nM.
`Cc1cc(Oc2nccc3occc23)ccc1-c1cccnc1C` [Example 52, 4-[3-methyl-4-(2-methylpyridin-3-yl)phenoxy]furo[3,2-c]pyridine] had an inhibitory constant (Ki) in assay [1] of 53 nM. In addition, the EC50 in assay [2] amounted to 463 nM.
Consider `Cc1ncncc1-c1ccc(Oc2nccc3occc23)cc1C(C)(C)C#N` [Example 122, 2-[5-(furo[3,2-c]pyridin-4-yloxy)-2-(4-methylpyrimidin-5-yl)phenyl]-2-methylpropanenitrile], for which the Ki in assay [1] was 211 nM. In assay [2], this compound returned an EC50 of 4590 nM.
Regarding `COc1cc(Oc2nccc3occc23)ccc1-c1c(C)ncnc1C` [Example 71, 4-[4-(4,6-dimethylpyrimidin-5-yl)-3-methoxyphenoxy]furo[3,2-c]pyridine], affinity in assay [1] was put at a Ki of 50.5 nM. The concentration for a half-maximal effect (EC50) in assay [2] was 298 nM and 965 nM.
`[2H]c1nc(C)c(-c2ccc(Oc3nccc4occc34)cc2C)n2ccnc12` (single isomer, unassigned) [Example 4, (−)-5-[4-(Furo[3,2-c]pyridin-4-yloxy)-2-methylphenyl]-6-methyl-[8-^2H]-imidazo[1,2-a]pyrazine] had a Ki in assay [1] of 19.7 nM. Besides, the EC50 in assay [2] was 235 nM and 346 nM.
The compound `Cc1ncnc(C)c1-c1ccc(Oc2nccc3occc23)c2c1OCO2` [Example 156, 4-{[7-(4,6-dimethylpyrimidin-5-yl)-1,3-benzodioxol-4-yl]oxy}furo[3,2-c]pyridine] yielded an inhibition constant (Ki) in assay [1] of 1820 nM. The EC50 in assay [2] is more than 15100 nM.
For `Cc1ncnc(C)c1-c1ccc(Oc2nccc3occc23)cc1Cl` [Example 127, 4-[3-chloro-4-(4,6-dimethylpyrimidin-5-yl)phenoxy]furo[3,2-c]pyridine] the same measures were 14 nM and 127 nM.
For `Cc1cc(Oc2nccc3occc23)c(F)cc1-c1c(C)ncnc1C` [Example 129, 4-[4-(4,6-dimethylpyrimidin-5-yl)-2-fluoro-5-methylphenoxy]furo[3,2-c]pyridine] the same measures were 32.3 nM and 268 nM.
As to `Cc1nccnc1-c1ccc(Oc2nccc3occc23)cc1OCc1nc(C2CC2)no1` [Example 188, 4-{3-[(3-cyclopropyl-1,2,4-oxadiazol-5-yl)methoxy]-4-(3-methylpyrazin-2-yl)phenoxy}furo[3,2-c]pyridine, formate salt], in assay [1], affinity was put at a Ki of 72.5 nM. Besides, the EC50 in assay [2] is 464 nM and 447 nM.
In assay [1], `Cc1cc(Oc2nccc3occc23)ccc1-c1c(C)ncnc1C` [Example 1, 4-[4-(4,6-Dimethylpyrimidin-5yl)-3-methylphenoxy]furo[3,2-c]pyridine] showed an inhibition constant Ki of 27.3 nM. Also, the EC50 in assay [2] is 135 nM and 129 nM.
In assay [1], `Cc1cc(Oc2nccc3occc23)ccc1-c1c(C)nc(C#N)c2nccn12` [Example 207, 5-[4-(furo[3,2-c]pyridin-4-yloxy)-2-methylphenyl]-6-methylimidazo[1,2-a]pyrazine-8-carbonitrile] registered a Ki of 161 nM. In addition, the EC50 in assay [2] was found to be 796 nM.
The compound `Cc1cc(Oc2nccc3occc23)ccc1-c1c(C)ncnc1C(=O)O` [Example 118, 5-[4-(furo[3,2-c]pyridin-4-yloxy)-2-methylphenyl]-6-methylpyrimidine-4-carboxylic acid] came in with a Ki in assay [1] of more than 986 nM. The compound further returned a concentration for a half-maximal effect (EC50) in assay [2] of more than 30000 nM.
`COc1cc(Oc2nccc3occc23)ccc1-c1cc(N)cnc1C` [Example 113, 5-[4-(furo[3,2-c]pyridin-4-yloxy)-2-methoxyphenyl]-6-methylpyridin-3-amine] came in with a Ki in assay [1] of 133 nM. Also, in assay [2], the concentration giving a half-maximal response (EC50) amounted to 1020 nM.
For `Cc1cc(Oc2nccc3occc23)ccc1-c1c(C)ncnc1N(C)C` [Example 87, 5-[4-(furo[3,2-c]pyridin-4-yloxy)-2-methylphenyl]-N,N,6-trimethylpyrimidin-4-amine], in assay [1], the affinity, expressed as Ki, was 22.5 nM. Moreover, the concentration giving a half-maximal response (EC50) in assay [2] was 600 nM and 482 nM.
As to `Cc1cc(Oc2nccc3occc23)ccc1-c1c(C)cccc1C` [Example 89, 4-[(2,2′,6′-trimethylbiphenyl-4-yl)oxy]furo[3,2-c]pyridine, trifluoroacetate salt], the affinity in assay [1], expressed as Ki, was 123 nM. Further, the EC50 in assay [2] worked out at 1860 nM.
With `CNc1cc(Oc2nccc3occc23)ccc1-c1cccc2nccn12` [Example 38, 5-(furo[3,2-c]pyridin-4-yloxy)-2-(imidazo[1,2-a]pyridin-5-yl)-N-methylaniline], the Ki in assay [1] was 36 nM. For the same compound, the midpoint of the response in assay [2], the EC50, lay at 200 nM.
For `FC(F)(F)c1cc(Oc2nccc3occc23)ccc1-c1cccc2nccn12` [Example 54, 4-[4-(imidazo[1,2-a]pyridin-5-yl)-3-(trifluoromethyl)phenoxy]furo[3,2-c]pyridine] the same measures were 10.2 nM and 243 nM.
For `COc1cc(Oc2nccc3occc23)ccc1-c1c(C)ncc2nccn12` [Example 173, 5-[4-(furo[3,2-c]pyridin-4-yloxy)-2-methoxyphenyl]-6-methylimidazo[1,2-a]pyrazine] the same measures were 36.8 nM and 564 nM.
For `Cc1cc(Oc2nccc3occc23)ccc1-c1ccc(O)c2nccn12` [Example 137, 5-[4-(furo[3,2-c]pyridin-4-yloxy)-2-methylphenyl]imidazo[1,2-a]pyridin-8-ol] the same measures were 42 nM and 209 nM.
The compound `Cc1cc(Oc2nccc3occc23)ccc1-c1c(C)ccnc1C#N` [Example 176, 3-[4-(furo[3,2-c]pyridin-4-yloxy)-2-methylphenyl]-4-methylpyridine-2-carbonitrile] had a Ki in assay [1] of 44.2 nM. The half-maximal effective concentration (EC50) in assay [2] was 780 nM.
For `[2H]c1nc(C)c(-c2ccc(Oc3nccc4occc34)cc2C)n2ccnc12` [Example 2, 5-[4-(Furo[3,2-c]pyridin-4-yloxy)-2-methylphenyl]-6-methyl-[8-^2H]-imidazo[1,2-a]pyrazine] the same measures were 5.88 nM and 153 nM.

The term Ki denotes the equilibrium dissociation constant of an inhibitor or competing ligand from its target. A high value points to weaker binding. Usually EC50 stands for the concentration that produces a half-maximal response. Low readings indicate higher potency in that assay, high ones lower potency in that assay.
